The text below walks through data of ChEMBL document CHEMBL5725459, “(R)-2-methyl-piperazine derivatives as CXCR3 receptor modulators” (2018).

The assay deals with T1, C-X-C chemokine receptor type 3 (Homo sapiens, UniProt P49682).
T1 sequence (P49682 whole entry): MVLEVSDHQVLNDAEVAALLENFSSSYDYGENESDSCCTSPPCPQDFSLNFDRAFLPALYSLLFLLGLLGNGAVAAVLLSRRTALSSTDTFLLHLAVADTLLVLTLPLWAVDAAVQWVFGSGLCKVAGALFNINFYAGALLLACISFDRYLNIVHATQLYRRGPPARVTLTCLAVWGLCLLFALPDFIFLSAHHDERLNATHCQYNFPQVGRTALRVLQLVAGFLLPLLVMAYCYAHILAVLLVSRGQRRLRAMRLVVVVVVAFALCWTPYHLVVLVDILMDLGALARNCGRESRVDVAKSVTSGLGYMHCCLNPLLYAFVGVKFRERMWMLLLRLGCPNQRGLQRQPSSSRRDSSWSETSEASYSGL
The experiment in a line: Receptor Internalization Assay (RIA): Stock solutions of test compounds are made up at a concentration of 10 mM in DMSO, and serially diluted in PBS containing 0.5% BSA to concentrations required for inhibition dose response curves. Diluted compounds are then mixed with an equal volume of CXCL10 (Peprotech) diluted in PBS. Anticoagulated venous human whole blood is added to the mixture, which is then incubated in a CO2 incubator at 37° C. to allow for ligand mediated receptor internalization (final CXCL10 concentration is 9 nM). After 30 min, the blood is mixed with fluorescently labeled CXCR3 and CD4 specific antibodies (Becton Dickinson) and incubated on ice for 10 minutes. Samples are then mixed with BD FACS Lysing Solution (Becton Dickinson) in order to eliminate red blood cells. After washing the cells with PBS containing 0.5% BSA, the samples are then analyzed in a flow cytometer (FACS Canto II, Becton Dickinson). For data analysis using FACSDiva software (Becton Dickinson), the mean fluorescence corresponding to CXCR3 cell surface expression was determined on CD4 positive cells. The calculated IC50 values may fluctuate depending on the daily assay performance. Fluctuations of this kind are known to those skilled in the art. In the case where IC50 values have been determined several times for the same compound, mean values are given.
As for `CC(C)c1ncn(CC(=O)N2C(C)CNCC2c2sc(C(F)(F)F)cc2-c2cnc(C3CC3)nc2)n1` (centres undefined), the half-inhibitory concentration (IC50) (usually the concentration that gives 50% inhibition) is 524 nM.

On to `COCc1ncn(CC(=O)N2C(C)CNCC2c2sc(C(F)(F)F)cc2-c2cnc(C3CC3)nc2)n1` (centres undefined), for which the IC50 was 1390 nM. With `CCc1ncn(CC(=O)N2C(C)CNCC2c2sc(C(F)(F)F)cc2-c2cnc(C(F)(F)F)nc2)n1` (centres undefined) the figure was 148 nM; with `CC1CNCC(c2sc(C(F)(F)F)cc2-c2cnc(C(F)(F)F)nc2)N1C(=O)Cn1cnc(C(N)=O)n1` (centres undefined), 1710 nM.

Take `CC1CNCC(c2sc(C(F)(F)F)cc2-c2cnc(C(F)(F)F)nc2)N1C(=O)Cn1cnc(C(C)(C)C)n1` (centres undefined): the IC50 was 349 nM.

Turning to `CC1CNCC(c2sc(C(F)(F)F)cc2-c2cnc(C(F)(F)F)nc2)N1C(=O)Cn1cnc(CO)n1` (centres undefined), the IC50 was 809 nM. To `CC1CNCC(c2sc(C(F)(F)F)cc2-c2cnc(C3CC3)nc2)N1C(=O)Cn1cnc(C(C)(C)C)n1` (centres undefined) belongs 679 nM; to `CCCc1ncn(CC(=O)N2C(C)CNCC2c2sc(C(F)(F)F)cc2-c2cnc(C(F)(F)F)nc2)n1` (centres undefined), 221 nM. With `CCc1ncn(CC(=O)N2C(C)CNCC2c2sc(C(F)(F)F)cc2-c2cnc(C3CC3)nc2)n1` (centres undefined) the figure was 190 nM; with `Cc1ncn(CC(=O)N2C(C)CNCC2c2sc(C(F)(F)F)cc2-c2cnc(C3CC3)nc2)n1` (centres undefined), 462 nM; with `COCc1ncn(CC(=O)N2C(C)CNCC2c2sc(C(F)(F)F)cc2-c2cnc(C(F)(F)F)nc2)n1` (centres undefined), 606 nM.

On to `CC1CNCC(c2sc(C(F)(F)F)cc2-c2cnc(C(F)(F)F)nc2)N1C(=O)Cn1cnc(C(C)(C)O)n1` (centres undefined), for which the 50% inhibitory concentration (IC50) was 830 nM. With `Cc1ncn(CC(=O)N2C(C)CNCC2c2sc(C(F)(F)F)cc2-c2cnc(C(F)(F)F)nc2)n1` (centres undefined) the figure was 189 nM; with `CCOc1ncc(-c2cc(C(F)(F)F)sc2C2CNCC(C)N2C(=O)Cn2cnc(CC)n2)cn1` (centres undefined), 235 nM. To `CCOc1ncc(-c2cc(C(F)(F)F)sc2C2CNCC(C)N2C(=O)Cn2cnc(C(C)(C)C)n2)cn1` (centres undefined) belongs 552 nM; to `CCOc1ncc(-c2cc(C(F)(F)F)sc2C2CNCC(C)N2C(=O)Cn2cnc(C)n2)cn1` (centres undefined), 211 nM. With `CCOc1ncc(-c2cc(C(F)(F)F)sc2C2CNCC(C)N2C(=O)Cn2cnc(COC)n2)cn1` (centres undefined), the IC50 is 950 nM. For the compound `CC(C)c1ncn(CC(=O)N2C(C)CNCC2c2sc(C(F)(F)F)cc2-c2cnc(C(F)(F)F)nc2)n1` (centres undefined), the IC50 was 174 nM.

Take `CCOc1ncc(-c2cc(C(F)(F)F)sc2C2CNCC(C)N2C(=O)Cn2cnc(C(C)C)n2)cn1` (centres undefined): the IC50 was 299 nM.
